# Laboratory results published in US6339062B1, “Retroinverso polypeptides that mimic or inhibit thrombospondin activity” (Inkine Pharmaceutical Company, Inc., priority 1998, dated 2002).
# Bridges are numbered along the chain shown (N, C = ends). Where no end group is shown, it is not given here. The star is where a group is joined. For = O=C*
# What was measured:
# [1] = tested on: MMP-9 production in BAE cells; experiment: TSP-1-stimulated endothelial MMP-9 production (Example 27); type: cell-based; conditions: for Relative MMP-9 Levels / % inhibition (MMP-9): with 15 μg/ml TSP-1; for inhibited MMP-9 production: at high doses
# Procedure: BAE cells were treated with TSP-1 as described in Example 27. MMP-9 levels were quantitated from densitometry of the zymograms prepared from the BAE cell conditioned media. The control was 15 μg/ml TSP-1. All other treatments were performed in the presence of 15 μg/ml TSP-1.
# [2] = tested on: mouse B16-F10 melanoma cells; experiment: Boyden chamber assay, TSP-1 mediated invasion of collagen (Examples 29, 30); type: cell-based; conditions: for inhibition of TSP-1 mediated invasion: 500 μg/ml peptide top chamber, 20 μg/ml TSP-1 bottom chamber, 6 hours, FIG. 18
# Procedure: Cell invasion was investigated by the Boyden Chamber Invasion Assay using the modified Boyden chamber. T. Frandsen et al., Fibrinolysis, 6: 71-76 (1992). Polycarbonate filters, 12 μm pore size, e.g., Millicell, Millipore Corporation, Bedford, Ma, were coated with 100 μg Type IV collagen (1 mg/ml 60% EtOH) and dried overnight at 25° C. Blind-well Boyden chambers are filled with 600 μl of serum-free media containing 0.1% BSA in the lower compartment, and the coated filters will be mounted in the chamber. Approximately 50,000 cells (tested to be greater than 95% viable) suspended in 400 μl of the same media will be placed in the upper chamber of the apparatus and allowed to settle onto the collagen-coated membrane. Varying concentrations of TSP-1 (0-150 nM) will be placed in the lower compartment and any neutralizing antibodies as well as peptides will be placed in the upper chamber. After an incubation period of about 3 to 6 hours at 37° C., the cells on the upper surface of the filter will be removed with a cotton swab. The filters are then fixed in 3% glutaraldehyde solution and stained with 0.5% crystal violet solution. Invasive cells adhering to the under-surface of the filter are counted using a phase contrast microscope (400×).
# Using this assay, mouse B16-F10 melanoma cells (50,000) were plated on the collagen-coated disk of the Boyden chamber apparatus. The top chamber contained melanoma cells in the presence of 500 μg/ml of the TSP-1 derived peptide and the bottom chamber contained 20 μg/ml TSP-1. After 6 hours, cells traversing the collagen were counted as cells attached to the underside of the collagen-coated disk. Five representative fields per chamber in duplicate were counted. The data shown in FIG. 18 represents the average per field and the error bars represent the standard deviation. The scrambled peptide, Val-Cys-Thr-Gly-Ser-Cys (SEQ ID NO: 7), the irrelevant peptide, Ala-Ser-Val-Thr-Ala-Arg (SEQ ID NO: 38), buffer, and the d-amino acid Cys-Ser-Val-Thr-Cys-Gly (SEQ ID NO: 40) had no effect on invasion.
# The experiments were performed as described for Example 29. […] In contrast, d-Cys-Ser-Val-Thr-Cys-Gly (SEQ ID NO: 40) had no effect.
# [3] = tested on: mouse B16-F10 melanoma cells; experiment: Direct adhesion to dried peptide (Example 31); type: cell-based; conditions: 10 μg of each peptide; one hour; FIG. 20
# Procedure: Peptide effect on direct adhesion was tested by drying 10 μg of each peptide on the bottom of a 96well microtiter plate. Plates were blocked with BSA. Mouse B16-F10 melanoma cells (50,000) were plated in each well and allowed to attach for one hour. Non-adherent cells were aspirated out, plates rinsed, and adherent cells were fixed, stained, and counted. The error bars represent the standard deviation.
# [4] = tested on: mouse B16-F10 melanoma cells; experiment: Melanoma tumor cell metastasis, peptide i.v. (Example 21); type: in vivo, mice; conditions: 1 mg peptide i.v. shortly before or after tumor implantation; two weeks; FIG. 12
# Description: Mice were sacrificed two weeks later and lung tumors counted. Treatment groups consisted of five animals. The photograph of FIG. 12 depicts three lungs from each treatment group. The black spots are melanoma tumors. All metastasis experiments were repeated 2-3 times showing qualitatively similar results depicted in the bar graph of FIG. 12.
# platelets = experiment: Direct platelet adhesion assay (Example 18); type: cell-based; conditions: wells treated with 50 μl of 40 μg/ml
# Procedure: The number of adherent platelets was essentially determined as previously described (Tuszynski et al., Anal. Bio., supra). Briefly, 100 μl of 5×10^8 platelets/ml washed as previously described (Tuszynski, et al., Blood, 72:109-225 (1988)) were added to microtiter plates, the wells of which were treated with 50 μl of a 40 μg/ml peptide or protein solution (Hepes buffered saline, pH 7.4). Solutions were dried at room temperature after incubation in a fume hood for two hours. Wells were blocked for one hour with 1% BSA. Platelets (100 μl) were incubated in the wells for 30 minutes and non-adherent platelets were removed by aspiration. Wells were washed 3× with 200 μl of Hepes buffered saline, pH 7.4. The number of adherent platelets was determined by measuring the platelet-derived protein using the BCA protein assay.
# [5] = tested on: Mouse B16 F10 melanoma cells; experiment: Direct adhesion assay (Example 16); type: cell-based; conditions: absorbed compound 2 μg
# Procedure: It is believed that thrombospondin acts in metastasis through its adhesive properties. An assay was developed, generally in accordance with the disclosure of Tuszynski et al., Anal. Bio., 184:189-91 (1990), which evaluates the ability of melanoma cells to adhere to the thrombospondin fragments or analogs of the invention. In this assay, wells of a 96-well microtiter dish (Costar, Cambridge, Mass.) were incubated for two to three hours with […] of a […] solution of various ligands in 20 mM NaCl, pH 7.3. Thrombospondin (purified by the method of Tuszynski et al., J. Biol. Chem., 260:12240-5 (1985), fibronectin (Sigma Chemical Co., Missouri) served as the positive control. Bovine serum albumin (BSA) (Sigma Chemical Co.) served as the negative control. Thrombospondin analogs of the invention p1, p5 and p6 were synthesized as described in Examples 1 through 3. Following peptide adhesion to the microtiter dish, the wells were aspirated, treated with 200 μl phosphate buffered saline (PBS) containing 1% BSA for 1 hour and then washed three more times with 200 μl PBS.
# Mouse B16 F10 melanoma cells were grown and harvested during log phase of growth using standard procedures. The harvested cells were washed two times in serum-free Dulbecco's minimum essential medium (DMEM) (Flow Laboratories) and suspended in DMEM at a final concentration of 4×10^5 cells/ml. Of the cell suspension 100 μl was added to each well of the microtiter dish containing the various ligands and the dish incubated at 37° C. in a CO2 incubator for 1 hour. Nonadherent cells were removed by aspiration and the wells washed three times with 200 μl of PBS. The total cell-associated protein was determined by dissolving the attached cells directly in the microtiter wells with 200 μl of the Pierce BCA working solution (Pierce Chem. Co. Booklet No. 23225 (1987)). […] Plates were allowed to cool to room temperature, cover sheets were removed, and the absorbance of each well was determined at 562 nm with a microtiter plate reader (Biotek, Burlington, Vt.)
# [6] = tested on: B16 F10 mouse melanoma cells; experiment: Antimetastatic activity in vivo (Example 20); parameters: species or system C57 black mice; conditions: 16 days
# [7] = tested on: platelets on absorbed thrombospondin (TSP); experiment: Competitive platelet adhesion assay, absorbed thrombospondin (Example 19); type: cell-based; conditions: 250 μg/ml; absorbed protein TSP
# Procedure: (§1) The direct adhesion assay of Example 18 was modified to measure the ability of the peptide compounds of the invention to compete with intact thrombospindin or fibronectin for adhesion of platelets.
# (§2) In this assay, thrombospondin (TSP) or fibronectin (FN) was absorbed onto microtiter dish as described in Example 18. The assay was similar to Example 18 except that before platelets were added to the microtiter dishes they were preincubated with 250 μg/ml of various ligands.
# [8] = tested on: platelets (platelet-rich-plasma); experiment: Platelet aggregation assay in platelet-rich-plasma (Example 8); type: cell-based; conditions: in vitro; FIG. 22
# Procedure: Platelet aggregation was monitored on a single-channel aggregometer equipped to measure luminescence (Chromo-Log, Havertown, Pa.). Platelet-rich-plasma (PRP) was obtained from whole blood anticoagulated with 0.38% sodium citrate by centrifugation at 150×g for 20 minutes.
# 0.5 ml aliquots of platelet-rich-plasma were aggregated by stirring with 2 uM ADP in the presence of various concentrations of Cys-Ser-Val-Thr-Cys-Gly (SEQ ID NO: 21) and Gly-Arg-Gly-Asp-Ser (SEQ ID NO: 36). Aggregation was measured at 37° as decrease in optical absorbance vs. time in a chrono-log aggregometer and is shown in FIG. 8. Peptides designated in each panel are represented by their amino acid sequence using the one letter amino acid code.
# [9] = tested on: platelets on absorbed fibronectin (FN); experiment: Competitive platelet adhesion assay, absorbed fibronectin (Example 19); type: cell-based; conditions: 250 μg/ml; absorbed protein FN
# Procedure: as §1, §2
# [10] = tested on: melanoma cells on absorbed thrombospondin; experiment: Competitive assay, thrombospondin specific adhesion to melanoma cells (Example 17); type: cell-based, mouse
# Description: The direct adhesion assay of Example 16 was modified to measure the ability of the peptide compounds of the invention to compete with intact thrombospondin for adhesion to melanoma cells.
# In this assay, intact thrombospondin is absorbed onto microtiter dishes as described in Example 16. […]
substance,measurement,setting,value
ASVTAR [irrelevant peptide],Relative MMP-9 Levels,[1]; 0.20 mM,0.78
same,inhibited MMP-9 production,[1],no effects
same,inhibition of TSP-1 mediated invasion,[2],no effect
same,adhesion of cells to dried peptide,[3],did not promote adhesion
Arg-Gly-Asp,% inhibition (MMP-9),[1]; 0.50 mM,0%
same,Relative MMP-9 Levels,[1]; 0.50 mM,1.03
same,inhibited MMP-9 production,[1],no effects
CSTSCG (cysteine pairing not given here),melanoma cell metastasis (lung tumors),[4],significantly blocked
Cys-Ser-Val-Thr-Cys-Gly (disulfide linked) (CSVTCG; disulfide 1-5 (inferred)) [cyclic Cys-Ser-Val-Thr-Cys-Gly],melanoma cell metastasis (lung tumors),[4],significantly blocked
Heparin,% inhibition (MMP-9),[1]; 50 μg/ml,6%
same,Relative MMP-9 Levels,[1]; 50 μg/ml,0.94
same,% inhibition (MMP-9),[1]; 500 μg/ml,55%
same,Relative MMP-9 Levels,[1]; 500 μg/ml,0.45
same,% inhibition (MMP-9),[1]; 1000 μg/ml,50%
same,Relative MMP-9 Levels,[1]; 1000 μg/ml,0.50
same,inhibited MMP-9 production,[1],50%
"Thrombospondin: purified thrombospondin, positive control [reference compound]",Adherence as % Control (adherent platelets),platelets,100%
same,Adhesion as % Thrombospondin,[5],100%
Trp-Ser-Pro-Cys-Ser-Val-Thr-Cys-Gly-NH2 (WSPCSVTCG-NH2; cysteine pairing not given here) [p6],% buffer control (number of lung tumors),[6]; 30 μg/mouse,91%
same,% buffer control (number of lung tumors),[6]; 100 μg/mouse,102%
same,% buffer control (number of lung tumors),[6]; 300 μg/mouse,50%
same,number of tumors compared with controls,[6],statistically fewer tumors than controls
same,size of lung tumors,[6],smaller in size
same,% Buffer Control (platelet adhesion),[7],98%
same,platelet aggregation,[8],inhibit platelet aggregation
same,% Buffer Control (platelet adhesion),[9],96%
same,% of Buffer Control (melanoma cell adhesion to thrombospondin),[10]; 200 μg/ml,74%
same,% of Buffer Control (melanoma cell adhesion to thrombospondin),[10]; 300 μg/ml,74%
"VCTGSC (cysteine pairing not given here) [scrambled peptide control, reference compound]",inhibition of TSP-1 mediated invasion,[2],no effect
same,adhesion of cells to dried peptide,[3],did not promote adhesion
WSPCSVTCG (cysteine pairing not given here) [p1],% buffer control (number of lung tumors),[6]; 30 μg/mouse,49%
same,number of tumors compared with controls,[6],statistically fewer tumors than controls
same,size of lung tumors,[6],smaller in size
same,Adherence as % Control (adherent platelets),platelets,adhere to platelets
same,Adherence as % Control (adherent platelets),platelets; listed as P1,39%
same,platelet aggregation,[8],inhibit platelet aggregation
same,% of Buffer Control (melanoma cell adhesion to thrombospondin),[10]; 10 μg/ml,49%
same,% of Buffer Control (melanoma cell adhesion to thrombospondin),[10]; 50 μg/ml,40%
d-Gly-Cys-(Acm)-Thr-Val-Ser-Cys-(Acm),dose-dependent effect on melanoma cell invasion,[2]; FIG. 19,same dose-dependent inhibition
same,adhesion of cells to dried peptide,[3],half as well as fibronectin and TSP-1
fTrp-Ser-Pro-Cys-Ser-Val-Thr-Cys-Gly-NH2 (For-WSPCSVTCG-NH2; cysteine pairing not given here) [p5],% buffer control (number of lung tumors),[6]; 30 μg/mouse,87%
same,number of tumors compared with controls,[6],statistically fewer tumors than controls
same,% Buffer Control (platelet adhesion),[7],107%
same,platelet aggregation,[8],inhibit platelet aggregation
same,Adhesion as % Thrombospondin,[5],display adhesive properties
same,Adhesion as % Thrombospondin,[5]; listed as P5,79%
same,% Buffer Control (platelet adhesion),[9],109%
same,% of Buffer Control (melanoma cell adhesion to thrombospondin),[10]; 10 μg/ml,99%
same,% of Buffer Control (melanoma cell adhesion to thrombospondin),[10]; 50 μg/ml,104%
same,% of Buffer Control (melanoma cell adhesion to thrombospondin),[10]; 200 μg/ml,89%
same,% of Buffer Control (melanoma cell adhesion to thrombospondin),[10]; 300 μg/ml,83%
fibronectin [reference compound],Adherence as % Control (adherent platelets),platelets,83%
